Measured values: the supplement of paper PMC10307832

How the values were obtained:
Assay in all cases: relative viability (nuclei count vs DMSO), 5 days (fraction); higher = more cells survive
[1] = compound: CN1CCN(CC1)C2=CC(=C(C=C2)NC3=NC(=C(S3)C(=O)C4=C(C=CC=C4Cl)Cl)N)OC [XMD14-99] + Nc1ncn([C@H]2C[C@H](O)[C@@H](CO)O2)c(=O)n1 [Decitabine] (partner 2 µM)
In short: (§1)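 Dosing by pin tool came one day after lung cancer cell lines were seeded in 1536-well plates, using either one drug or a fixed anchor-drug dose plus five library-drug doses (not always all listed) in √10 steps. After 5 days, nuclei were counted on 4× images. Relative viability is treated-well nuclei count divided by vehicle-well nuclei count, and values are medians of duplicate plates.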

[2] = compound: N[C@@H]1CCCN(c2c(/C=C3\SC(=O)NC3=O)cccc2-c2ccccc2)C1 [AZD1208] + Cc1cc(Nc2cc(N3CCN(C)CC3)nc(Sc3ccc(NC(=O)C4CC4)cc3)n2)n[nH]1 [Tozasertib] (partner 0.1 µM)
In short: as §1

[3] = compound: CN1CCN(CC1)C2=CC(=C(C=C2)NC3=NC(=C(S3)C(=O)C4=C(C=CC=C4Cl)Cl)N)OC [XMD14-99] + C[C@@H](Oc1cc(-c2cnn(C3CCNCC3)c2)cnc1N)c1c(Cl)ccc(F)c1Cl [Crizotinib] (partner 1 µM)
In short: as §1

[4] = compound: N[C@@H]1CCCN(c2c(/C=C3\SC(=O)NC3=O)cccc2-c2ccccc2)C1 [AZD1208] + O=C(CCCCCCC(=O)Nc1ccccc1)NO [Vorinostat] (partner 1 µM)
In short: as §1

| Cell Line | relative viability ([1]; first compound 0.08 µM) | relative viability ([1]; first compound 0.8 µM) | relative viability ([1]; first compound 2.53 µM) | relative viability ([1]; first compound 8 µM) | relative viability ([2]; first compound 0.08 µM) | relative viability ([2]; first compound 0.253 µM) | relative viability ([2]; first compound 0.8 µM) | relative viability ([2]; first compound 2.53 µM) | relative viability ([2]; first compound 8 µM) | relative viability ([3]; first compound 0.08 µM) | relative viability ([3]; first compound 0.8 µM) | relative viability ([3]; first compound 2.53 µM) | relative viability ([3]; first compound 8 µM) | relative viability ([4]; first compound 0.08 µM) | relative viability ([4]; first compound 0.253 µM) | relative viability ([4]; first compound 0.8 µM) | relative viability ([4]; first compound 2.53 µM) | relative viability ([4]; first compound 8 µM) |
| --- | --- | --- | --- | --- | --- | --- | --- | --- | --- | --- | --- | --- | --- | --- | --- | --- | --- | --- |
| HCC-44 | 1.01 | 0.902 | 0.898 | 0.911 | 0.876 | 1.04 | 0.877 | 0.896 | 0.866 | 0.828 | 0.762 | 0.855 | 0.765 | 1.2 | 1.09 | 1.13 | 1.11 | 1.12 |
| HCC-827 | 0.354 | 0.273 | 0.296 | 0.306 | 0.445 | 0.409 | 0.412 | 0.385 | 0.401 | 0.857 | 0.906 | 0.754 | 0.752 | 0.991 | 0.904 | 0.861 | 0.839 | 0.78 |
| NCI-H1623 | – | – | – | – | 0.456 | 0.394 | 0.403 | 0.426 | 0.393 | – | – | – | – | – | – | – | – | – |
| NCI-H2405 | 0.704 | 0.749 | 0.628 | 0.648 | 0.726 | 0.721 | 0.693 | 0.71 | 0.635 | 0.84 | 0.858 | 0.863 | 0.674 | 1.13 | 1.04 | 0.965 | 1.01 | 0.932 |
| PC-3 [JPC-3] | 0.75 | 0.88 | 0.797 | 0.774 | 0.9 | 0.989 | 0.906 | 0.886 | 0.78 | 1.05 | 0.955 | 0.916 | 0.781 | 1.13 | 0.746 | 0.857 | 0.909 | 0.926 |
| NCI-H1651 | 0.683 | 0.546 | 0.601 | 0.509 | 0.698 | 0.661 | 0.652 | 0.529 | 0.408 | 0.869 | 0.799 | 0.934 | 0.825 | 0.583 | 0.602 | – | 0.561 | 0.556 |
| HARA | 0.565 | 0.505 | 0.537 | 0.403 | 0.11 | 0.0998 | 0.111 | 0.0918 | 0.0796 | 0.994 | 0.938 | 0.864 | 0.646 | 0.489 | 0.486 | 0.451 | 0.515 | 0.546 |
| NCI-H1650 | 0.393 | 0.418 | 0.41 | 0.338 | 0.423 | 0.387 | 0.277 | 0.321 | 0.304 | 1 | 0.951 | 1.09 | 0.849 | 0.635 | 0.464 | 0.643 | 0.588 | 0.472 |
| NCI-H1395 | 0.696 | 0.7 | 0.712 | 0.653 | 0.803 | 0.68 | 0.677 | 0.629 | 0.571 | – | – | – | – | 0.974 | 0.731 | 0.632 | 0.698 | 0.546 |
| NCI-H1993 | 0.561 | 0.603 | 0.587 | 0.622 | 0.667 | 0.52 | 0.526 | 0.566 | 0.543 | 0.952 | 0.847 | 0.792 | 0.68 | 0.584 | 0.63 | 0.726 | 0.548 | 0.501 |
